Values of other authors, collected in PMC5454779 (Biochemistry, 2011).

Molecular target: ssDNA
Conditions: read-out: Kd of cold shock protein A with ssDNA; single OB-fold; ref [9]

- Kd: 6 µM
Substance: cold shock protein A: cold shock protein consisting of a single OB-fold
